Experimental data from US10543286B2, “Methods for increasing platelet count by inhibiting biliverdin IXβ reductase” (The Research Foundation for The State University of New York, priority 2015, dated 2020).

Experiments:
[1] = tested on: control or iPSC/BLVRB^S111L cells (NCRM1 iPSCs); test: TBHP-induced ROS accumulation in genetically-modified iPSCs (CellROX Green, flow cytometry); assay type: cell-based; settings: Homo sapiens, 1 hour at 37° C., read-out: concentration causing ROS accumulation in 50% of cells (EC50)
Procedure: FIG. 3i is a bar graph showing ROS expression by genetically-modified NCRM1 iPSCs. About 1×10^5, cells were labeled as in FIG. 2h, and treated (or not) with 200 μM tert-butyl hydroperoxide (TBHP) for 1 hour at 37° C., and ROS-expressing cells were quantitated by flow cytometry after a 60 minute period loading with cell-permeable CellROX Green (500 nM) as indicator (N=6); p-values *<0.05; **<0.01; ***<0.001; ****<0.0001. From left to right, the bars correspond to activity in control cells, activity in cells having BLVRB^WT, and activity in cells having BLVRB^S111L.
Hematopoietic-derived (CD34^+) induced pluripotent stein cells (iPSC) expressing endogenous BLVRB were initially developed as heterozygous models designed to phenocopy zygosity state in subject cohorts. […]
Human CD34^+-derived NCRM1 induced pluripotent stem cells (iPSC) were genetically modified using lentivirus infection (MOI 9) for generation of stable cell lines after puromycin selection (iPSC/BLVRB^S111L, iPSC/BLVRB^WT, iPSC/Control). Oxidation/reduction activity was quantified in vitro using the NADPH-dependent redox coupler resazurin; cells (4×10^4/well) were plated and propagated in mTeSR1 medium and at 24 hours were incubated with resazurin (0.1 v/v) followed by serial spectrofluorimetric detection (530 nm excitation, 590 nm emission) for the reduced resorufin byproduct. […]

[2] = molecular target: T1, biliverdin IX beta reductase (BLVRB) (Homo sapiens, UniProt P30043); test: BLVRB flavin reductase inhibition assay (FMN/NADPH, absorbance at 340 nm); assay type: biochemical; settings: 300 nM recombinant BLVRB, 200 μM FMN, 100 μM NADPH, 100 mM potassium phosphate pH 7.6, 37° C.; read-out: IC50, concentration of inhibitor needed to inhibit the target enzyme by 50% (flavin reductase activity of BLVRB)
T1 construct: BLVRBWT and BLVRBS111L open reading frames were PCR-amplified and directionally-cloned into pGEX-KG expression vector; GST (N, cleaved yes); made in house; LB medium, IPTG induction
T1 sequence (P30043 1-206): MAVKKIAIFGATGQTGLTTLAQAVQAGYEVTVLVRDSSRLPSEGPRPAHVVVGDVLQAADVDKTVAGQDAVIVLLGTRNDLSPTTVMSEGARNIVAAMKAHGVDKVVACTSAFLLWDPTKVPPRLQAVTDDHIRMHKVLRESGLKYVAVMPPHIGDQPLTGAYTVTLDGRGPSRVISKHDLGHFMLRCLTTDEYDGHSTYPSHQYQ
Procedure: In one embodiment, the agent is a. chemical compound. An example of such a compound is described in Example 7. Inhibition of enzyme activity by the compound was tested in a reaction containing 100 mM potassium phosphate, pH 7.6, 200 μM FMN (flavin mononucleotide), 100 μM NADPH.
Reactions were initiated by the addition of 300 nM recombinant BLVRB. Enzymatic activity was monitored by following the decrease in absorbance at 340 nm which corresponds to the oxidation of NADPH to NADP^+. […] (FIG. 9)

| IC50 [2] [µM] | Compound | EC50 [1] [µM] |
| --- | --- | --- |
|  | CC(C)(C)OO [TBHP, tert-butyl hydroperoxide] | 200 |
| 30.7 | COc1ccc2nc3cc(Cl)ccc3c(Nc3ccc(O)c(CN4CCN(C)CC4)c3)c2c1 [compound 1301] |  |
